{
  "source": "patent US20110155157A1",
  "about": "“CIGARETTE FILTER CONTAINING ROSEMARY EXTRACT AND A METHOD OF REDUCING DNA DAMAGE CAUSED BY HARMFUL AGENTS IN CIGARETTE SMOKE BY USE OF SAID FILTER” (priority 2006, published 2011)",
  "test_system": "calf thymus DNA",
  "assay": "BPDE-dG adduct formation by cigarette smoke solution in a cell-free system with DNA and (+)-BP-7,8-diol",
  "data": [
    {"substance": "Catalase", "values": [
      {"measurement": "% BPDE-dG relative to standard CS", "setting": "CSS diluted 1:19 with PBS pH 7.4, (+) BaP-7,8-diol, room temperature 2 h", "result": 12, "unit": "%"},
      {"measurement": "effect on the (−)-anti-BPDE-dG produced", "setting": "in words", "result": "inhibited the formation of the adduct"}
    ]}
  ]
}
